Reference: US20230172189A1, “Methods for Extending the Shelf-life of Stored Donor Blood and/or Red Blood Cells and Treated Red Blood Cell Compositions Produced Thereby” (Ohio University, priority 2020, published 2023)

What was measured:
RBCs [1] = test: Hemolysis of RBCs during lipid exchange (UV-Vis absorbance at 541 nm); assay type: cell-based; conditions: for hemolysis of RBCs during lipid exchange: exogenous lipid loaded into MαCD, one hour incubation
Procedure: The release of hemoglobin from the RBCs is considered as a sign of disrupting the cell membrane and consequently extracting the inner leaflet.
The hemolysis of RBCs during lipid exchange was measured using UV-Vis spectroscopy.
Presence of hemoglobin in the exchange solution is believed to be a disruption of the RBCs, lead to extracting the inner leaflet of the membrane. To monitor the amount of hemolysis after the exchange, the cells were centrifuged at 750×g for 5 minutes, 200 μL of the supernatant was collected, and its absorbance at 541 nm was measured using a plate reader. RBCs suspended in DPBS and water for 1 hour, at the same hematocrit concentrations as the ones used for exchange experiments, were used as negative and positive controls for the hemolysis. Both controls were also centrifuged at 750×g for 5 minutes.

RBCs [2] = test: Confocal microscopy of RBCs after exchange with a fluorescent lipid; assay type: cell-based; conditions: 19:1 POPS:NBD-PE, one hour incubation, with or without MαCD
Procedure: To confirm that MαCD mediates the lipid exchange and that the lipids are exchanged with the outer leaflet only, confocal microscopy was performed on the RBCs after the exchange. A mixture of POPS and 1,2-dipalmitoyl-sn-glycero-3-phosphoethanolamine-N-(7-nitro-2-1,3-benzoxadiazol-4-yl) (NBD-PE) with a molar ratio 19:1 POPS:NBD-PE was used. RBCs are incubated for one hour with the lipid mixture without MαCD (FIG. 2A) or with the lipid mixture loaded into MαCD (FIG. 2B).
Delivering of the phospholipids to the membrane was studied using fluorescence. A quenching agent was used to diminish the fluorescence to examine whether the lipids were delivered to the outer or inner leaflet. Organic solutions of a fluorescent phospholipid (NBD-PE) and POPS were mixed to a molar ratio of 1:19 NBD-PE:POPS. The other steps prior to the exchange experiment were as mentioned before. After the exchange, the cells were centrifuged at 750×g for 5 minutes, the precipitated RBCs were collected, re-suspended in 10% sucrose in DPBS, loaded onto a glass slide, and imaged using a confocal microscope. Sodium dithionite solution was made to a concentration of 50 mM and was added to an aliquot of the exchanged RBCs 1 minute prior to loading onto glass slides and imaging.

Row | Compound | hemolysis of RBCs during lipid exchange (RBCs [1]) | capability of mediating the exchange process (RBCs [1]; two MαCD concentrations tested during optimisation) | mediation of lipid exchange with RBC outer leaflet (RBCs [2])
1 | CCCCCCCC/C=C\CCCCCCCC(=O)OC(COC(=O)CCCCCCCCCCCCCCC)COP(=O)([O-])OCC[N+](C)(C)C (stereo not shown) [POPC, 1-palmitoyl-2-oleoyl-glycero-3-phosphocholine] | lowest hemolysis | – | –
2 | methyl-α-cyclodextrin [MαCD] | – | both concentrations were capable of mediating the exchange process | lipid exchange only occurs in the presence of MαCD
3 | CCCCCCCC/C=C\CCCCCCCC(=O)O[C@H](COC(=O)CCCCCCCCCCCCCCC)COP(=O)(O)OC[C@H](N)C(=O)O [POPS, 1-palmitoyl-2-oleoyl-sn-glycero-3-phospho-L-serine] | lowest hemolysis | – | –
